Test results reported in publication PMC6179058, “Design, synthesis, and biological evaluation of novel iso-flavones derivatives as H3R antagonists” (Journal of Enzyme Inhibition and Medicinal Chemistry, 2018).

Target: T1, human H3R (histamine receptor 3) (Homo sapiens, UniProt Q9Y5N1)
T1 construct: gene HRH3; human H3R fused via TEV protease site to Gal4-VP16 transcription factor; stably expressed in H3-bla U2OS cells (Invitrogen) with beta-arrestin/TEV protease fusion and UAS beta-lactamase reporter
T1 sequence (Q9Y5N1 whole entry, the tested form may be a part): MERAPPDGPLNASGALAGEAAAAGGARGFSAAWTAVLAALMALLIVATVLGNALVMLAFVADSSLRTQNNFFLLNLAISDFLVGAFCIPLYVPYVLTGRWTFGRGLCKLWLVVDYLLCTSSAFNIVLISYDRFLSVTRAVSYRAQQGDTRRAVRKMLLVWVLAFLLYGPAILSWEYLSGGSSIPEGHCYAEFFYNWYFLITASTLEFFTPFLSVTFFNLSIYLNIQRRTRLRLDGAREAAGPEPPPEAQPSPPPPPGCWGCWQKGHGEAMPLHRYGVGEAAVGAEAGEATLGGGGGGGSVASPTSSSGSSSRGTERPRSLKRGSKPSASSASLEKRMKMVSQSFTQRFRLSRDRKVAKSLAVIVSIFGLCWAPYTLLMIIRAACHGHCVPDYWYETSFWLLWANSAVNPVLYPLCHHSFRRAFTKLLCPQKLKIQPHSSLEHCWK
Assay: beta-arrestin/TEV beta-lactamase FRET reporter assay, antagonist mode
Format: cell-based
Conditions: read-out: Inhibit rate (%) at 10 μM
Description: beta-arrestin/TEV beta-lactamase FRET reporter assay, antagonist mode on human H3R (histamine receptor 3)

Row | SMILES | inhibition at 10 µM [%]
1 | O=c1c(-c2ccc(O)cc2)coc2c(CN3CCCC3)c(O)ccc12 [2f, 7-hydroxy-3-(4-hydroxyphenyl)-8-(pyrrolidin-1-ylmethyl)-4H-chromen-4-one] | 18.7
2 | COc1ccc(-c2coc3c(CN4CCCC4)c(O)ccc3c2=O)cc1 [2m, 7-hydroxy-3-(4-methoxyphenyl)-8-(pyrrolidin-1-ylmethyl)-4H-chromen-4-one] | 14.6
